Measured values: US8119681B2, “2-[1-phenyl-5-hydroxy or methoxy-4alpha-methyl-hexahydrocyclopenta [ƒ]indazole-5-YL]ethyl phenyl derivatives as glucocorticoid receptor ligands” (Merck Sharp & Dohme Corp., priority 2006, dated 2012)
Like-named read-outs stand apart in the source and are kept apart here.

Biological target: T1, human GR (Homo sapiens, UniProt P04150)
T1 sequence (P04150 1-777): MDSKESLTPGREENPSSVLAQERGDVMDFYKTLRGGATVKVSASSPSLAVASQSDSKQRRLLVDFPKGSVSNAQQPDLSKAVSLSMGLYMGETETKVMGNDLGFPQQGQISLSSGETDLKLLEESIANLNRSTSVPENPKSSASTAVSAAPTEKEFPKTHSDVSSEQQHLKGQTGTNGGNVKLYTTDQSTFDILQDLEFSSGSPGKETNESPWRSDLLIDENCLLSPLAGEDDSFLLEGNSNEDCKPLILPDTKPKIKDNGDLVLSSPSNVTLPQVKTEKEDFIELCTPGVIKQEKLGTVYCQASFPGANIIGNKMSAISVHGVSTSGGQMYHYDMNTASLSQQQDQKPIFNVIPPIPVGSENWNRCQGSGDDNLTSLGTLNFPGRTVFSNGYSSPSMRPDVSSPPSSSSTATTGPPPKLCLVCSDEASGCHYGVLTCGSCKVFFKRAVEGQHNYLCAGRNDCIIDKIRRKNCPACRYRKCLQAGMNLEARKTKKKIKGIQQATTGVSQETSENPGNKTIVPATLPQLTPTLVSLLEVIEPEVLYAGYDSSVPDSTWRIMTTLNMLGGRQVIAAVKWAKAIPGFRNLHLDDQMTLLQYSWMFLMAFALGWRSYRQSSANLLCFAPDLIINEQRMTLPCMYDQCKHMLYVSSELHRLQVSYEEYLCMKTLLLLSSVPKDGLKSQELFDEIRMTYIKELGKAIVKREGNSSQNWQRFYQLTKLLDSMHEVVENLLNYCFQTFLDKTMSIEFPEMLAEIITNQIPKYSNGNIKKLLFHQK
Assay: Transrepression Assay (GITAR), TNFα-β-lactamase reporter gene in U937 cells
Type: cell-based
Set-up: U937 cells contain an endogenous glucocorticoid receptor (GR); endogenous in cells; host or cells: U937 cells stably transfected with the TNF-α promoter/β-lactamase reporter only
Conditions: for EC50: IP = inflection point; for GITAR > GRAMM % SEP: separation of GITAR Emax over GRAMMER Emax; for Emax: U-937
Procedure, shortened: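 Reporter readout used CCF2-AM loading for 70–90 min at room temperature after overnight (~18 h, 37 °C) PMA (5 ng/ml final) and LPS (100 ng/ml final) stimulation of compound-treated (30–45 min) TNFα-β-lactamase U937 cells expressing native GR. Activity was normalised to 100 nM dexamethasone repression.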

[1] = Table 1, U937 cells, read-out: Transrepression U937 Cells GITAR IP
[2] = 100 nM dexamethasone = 100% activity, read-out: maximal activity in the transrepression assay
[3] = Table 1, U937 cells, activity repressed by 100 nM dexamethasone = 100%, read-out: Transrepression U937 Cells GITAR Emax (%)
[4] = Table 2, U937 cells, read-out: Transactiviation U937 Cells GITAR IP
[5] = Table 2, U937 cells, activity repressed by 100 nM dexamethasone = 100%, read-out: Transactiviation U937 Cells GITAR Emax (%)

EC50 [1] | GITAR > GRAMM % SEP (Table 1) | Emax [2] | Emax [3] | EC50 [4] | GITAR > GRAMM % SEP (Table 2) | Emax [5] | Compound
208 nM | 41% | 5 to 100% | 54% | – | – | – | CC1(NC(=O)c2ccccc2CC[C@]2(O)CCC3=Cc4c(cnn4-c4ccccc4)C[C@@]32C)CC1 [Example 34, 2-{2-[(4αS,5R)-5-hydroxy-4α-methyl-1-phenyl-1,4,4α,5,6,7-hexahydrocyclopenta[f]indazol-5-yl]ethyl}-N-(1-methylcyclopropyl)benzamide]
170 nM | 14% | 5 to 100% | 62% | – | – | – | CC(C)NC(=O)c1ccccc1CC[C@]1(O)CCC2=Cc3c(cnn3-c3ccc(F)cc3)C[C@@]21C [Example 35, 2-{2-[(4αS,5R)-1-(4-fluorophenyl)-5-hydroxy-4α-methyl-1,4,4α,5,6,7-hexahydrocyclopenta[f]indazol-5-yl]ethyl}-N-isopropylbenzamide]
81 nM | 1% | 5 to 100% | 58% | – | – | – | C[C@]12Cc3cnn(-c4ccc(F)cc4)c3C=C1CC[C@@]2(O)CCc1ccccc1C(=O)NCC1CC1 [Example 37, N-(cyclopropylmethyl)-2-{2-[(4αS,5R)-1-(4-fluorophenyl)-5-hydroxy-4α-methyl-1,4,4α,5,6,7-hexahydrocyclopenta[r]indazol-5-yl]ethyl}benzamide]
152 nM | 44% | 5 to 100% | 58% | – | – | – | CC(CNC(=O)c1c(F)cccc1CC[C@]1(O)CCC2=Cc3c(cnn3-c3ccc(F)cc3)C[C@@]21C)C(F)(F)F (stereo partly drawn) [Example 38, 2-fluoro-6-{2-[(4αS,5R)-1-(4-fluorophenyl)-5-hydroxy-4α-methyl-1,4,4α,5,6,7-hexahydrocyclopenta[f]indazol-5-yl]ethyl}-N-(3,3,3-trifluoro-2-methylpropyl)benzamide]
– | – | – | – | 212 nM | −7% | 91% | C[C@]12Cc3cnn(-c4ccc(F)cc4)c3C=C1CC[C@@]2(O)CCc1ccccc1Cl [Example 40 WO 2004/075840 A2, reference compound]
246 nM | 17% | 5 to 100% | 64% | – | – | – | C[C@]12Cc3cnn(-c4ccc(F)cc4)c3C=C1CC[C@@]2(O)CCc1ccccc1C(=O)N1CCC1 [Example 40, (4αS,5R)-5-{2-[2-(azetidin-1-ylcarbonyl)phenyl]ethyl}-1-(4-fluorophenyl)-4α-methyl-1,4,4α,5,6,7-hexahydrocyclopenta[f]indazol-5-ol]
– | – | – | – | 270 nM | −3% | 88% | C[C@]12Cc3cnn(-c4ccc(F)cc4)c3C=C1CCC[C@@]2(O)CCc1ccccc1Cl [Example 41 WO 2004/075840 A2, reference compound]
115 nM | 44% | 5 to 100% | 62% | – | – | – | COC(=O)C(C)(C)NC(=O)c1c(F)cccc1CC[C@]1(O)CCC2=Cc3c(cnn3-c3ccc(F)cc3)C[C@@]21C [Example 41, methyl N-(2-fluoro-6-{2-[(4αS,5R)-1-(4-fluorophenyl)-5-hydroxy-4α-methyl-1,4,4α,5,6,7-hexahydrocyclopenta[f]indazol-5-yl]ethyl}benzoyl)-2-methylalaninate]
122 nM | 13% | 5 to 100% | 64% | – | – | – | C[C@]12Cc3cnn(-c4ccccc4)c3C=C1CC[C@@]2(O)CCc1ccccc1C(=O)NC1CC1 [Example 42, N-cyclopropyl-2-{2-[(4αS,5R)-5-hydroxy-4α-methyl-1-phenyl-1,4,4α,5,6,7-hexahydrocyclopenta[f]indazol-5-yl]ethyl}benzamide]
98 nM | 9% | 5 to 100% | 68% | – | – | – | C[C@]12Cc3cnn(-c4ccccc4)c3C=C1CC[C@@]2(O)CCc1ccccc1C(N)=O [Example 43, 2-{2-[(4αS,5R)-5-hydroxy-4α-methyl-1-phenyl-1,4,4α,5,6,7-hexahydrocyclopenta[f]indazol-5-yl]ethyl}benzamide]
119 nM | 43% | 5 to 100% | 67% | – | – | – | C=C(C)CNC(=O)c1c(F)cccc1CC[C@]1(O)CCC2=Cc3c(cnn3-c3ccc(F)cc3)C[C@@]21C [Example 44, 2-fluoro-6-{2-[(4αS,5R)-1-(4-fluorophenyl)-5-hydroxy-4α-methyl-1,4,4α,5,6,7-hexahydrocyclopenta[f]indazol-5-yl]ethyl}-N-(2-methylprop-2-en-1-yl)benzamide]
220 nM | 52% | 5 to 100% | 70% | – | – | – | C[C@H](CNC(=O)c1ccccc1CC[C@]1(O)CCC2=Cc3c(cnn3-c3ccc(F)cc3)C[C@@]21C)C(F)(F)F [Example 45, 2-{2-[(4αS,5R)-1-(4-fluorophenyl)-5-hydroxy-4α-methyl-1,4,4α,5,6,7-hexahydrocyclopenta[f]indazol-5-yl]ethyl}-N-[(2R)-3,3,3-trifluoro-2-methylpropyl]benzamide]
– | – | – | – | 596 nM | 44% | 71% | C[C@]12Cc3cnn(-c4ccc(F)cc4)c3C=C1CC[C@@]2(O)CCc1ccc(F)cc1 [Example 46 WO 2004/075840 A2, reference compound]
248 nM | 17% | 5 to 100% | 70% | – | – | – | C[C@]12Cc3cnn(-c4ccc(F)cc4)c3C=C1CC[C@@]2(O)CCc1ccccc1C(=O)N1CCCCC1 [Example 46, (4αS,5R)-1-(4-fluorophenyl)-4α-methyl-5-{2-[2-(piperidin-1-ylcarbonyl)phenyl]ethyl}-1,4,4α,5,6,7-hexahydrocyclopenta[f]indazol-5-ol]
205 nM | 12% | 5 to 100% | 71% | – | – | – | C[C@]12Cc3cnn(-c4ccc(F)cc4)c3C=C1CC[C@@]2(O)CCc1ccccc1C(=O)N1CCCC1 [Example 47, (4αS,5R)-1-(4-fluorophenyl)-4α-methyl-5-{2-[2-(pyrrolidin-1-ylcarbonyl)phenyl]ethyl}-1,4,4α,5,6,7-hexahydrocyclopenta[f]indazol-5-ol]
198 nM | 59% | 5 to 100% | 72% | – | – | – | CC(C)[C@@H](C)NC(=O)c1c(F)cccc1CC[C@]1(O)CCC2=Cc3c(cnn3-c3ccc(F)cc3)C[C@@]21C [Example 48, N-[(1R)-1,2-dimethylpropyl]-2-fluoro-6-{2-[(4αS,5R)-1-(4-fluorophenyl)-5-hydroxy-4α-methyl-1,4,4α,5,6,7-hexahydrocyclopenta[f]indazol-5-yl]ethyl}benzamide]
30 nM | 47% | 5 to 100% | 72% | – | – | – | CCCNC(=O)c1c(F)cccc1CC[C@]1(O)CCC2=Cc3c(cnn3-c3ccc(F)cc3)C[C@@]21C [Example 49, 2-fluoro-6-{2-[(4αS,5R)-1-(4-fluorophenyl)-5-hydroxy-4α-methyl-1,4,4α,5,6,7-hexahydrocyclopenta[f]indazol-5-yl]ethyl}-N-propylbenzamide]
193 nM | 42% | 5 to 100% | 73% | – | – | – | CCNC(=O)c1ccccc1CC[C@]1(O)CCC2=Cc3c(cnn3-c3ccc(F)c(F)c3)C[C@@]21C [Example 51, 2-{2-[(4αS,5R)-1-(3,4-difluorophenyl)-5-hydroxy-4α-methyl-1,4,4α,5,6,7-hexahydrocyclopenta[f]indazol-5-yl]ethyl}-N-ethylbenzamide]
154 nM | 29% | 5 to 100% | 74% | – | – | – | COC(=O)C(C)(C)NC(=O)c1ccccc1CC[C@]1(O)CCC2=Cc3c(cnn3-c3ccc(F)cc3)C[C@@]21C [Example 52, methyl N-(2-{2-[(4αS,5R)-1-(4-fluorophenyl)-5-hydroxy-4α-methyl-1,4,4α,5,6,7-hexahydrocyclopenta[f]indazol-5-yl]ethyl}benzoyl)-2-methylalaninate]
